Test results as given in patent publication US8192962B2, “Processes for detecting toxic substances” (Daikin Industries, Ltd., priority 2001, dated 2012).

System: Transport facilitation protein genes
Test: DNA chip mRNA expression in yeast, transport facilitation protein genes (Table 5)
Assay type: cell-based, Saccharomyces cerevisiae S288C
Summary of the method: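 Ratios compare mRNA levels in stressed and control S. cerevisiae. Each toxicant was applied for two hours to log-phase cultures at 25° C. at a sub-lethal, growth-inhibiting level; fluorescent cDNA (Cy3- or Cy5-dUTP) was hybridized to a genome-wide yeast chip for over 12 h at 65° C.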

Compound: CCCCCCCCCCCCc1ccc(S(=O)(=O)[O-])cc1.[Na+] [(17), sodium dodecylbenzosulfonate]
- The level of expressed mRNA in the presence of chemical substance/The level of expressed mRNA in the absence of chemical substance (yeast gene YBL030C): 1.0
- The level of expressed mRNA in the presence of chemical substance/The level of expressed mRNA in the absence of chemical substance (yeast gene YBL099W): 0.7
- The level of expressed mRNA in the presence of chemical substance/The level of expressed mRNA in the absence of chemical substance (yeast gene YBR052C): 1.8
- The level of expressed mRNA in the presence of chemical substance/The level of expressed mRNA in the absence of chemical substance (yeast gene YBR068C): 1.1
- The level of expressed mRNA in the presence of chemical substance/The level of expressed mRNA in the absence of chemical substance (yeast gene YBR127C): 0.8
- The level of expressed mRNA in the presence of chemical substance/The level of expressed mRNA in the absence of chemical substance (yeast gene YBR132C): 1.1
- The level of expressed mRNA in the presence of chemical substance/The level of expressed mRNA in the absence of chemical substance (yeast gene YBR207W): 1.2
- The level of expressed mRNA in the presence of chemical substance/The level of expressed mRNA in the absence of chemical substance (yeast gene YBR293W): 1.0
- The level of expressed mRNA in the presence of chemical substance/The level of expressed mRNA in the absence of chemical substance (yeast gene YBR294W): 1.0
- The level of expressed mRNA in the presence of chemical substance/The level of expressed mRNA in the absence of chemical substance (yeast gene YBR295W): 1.3
- The level of expressed mRNA in the presence of chemical substance/The level of expressed mRNA in the absence of chemical substance (yeast gene YBR298C): 0.9
- The level of expressed mRNA in the presence of chemical substance/The level of expressed mRNA in the absence of chemical substance (yeast gene YCL025C): 0.6
- The level of expressed mRNA in the presence of chemical substance/The level of expressed mRNA in the absence of chemical substance (yeast gene YCL038C): 1.4
- The level of expressed mRNA in the presence of chemical substance/The level of expressed mRNA in the absence of chemical substance (yeast gene YCR024C-A): 0.9
- The level of expressed mRNA in the presence of chemical substance/The level of expressed mRNA in the absence of chemical substance (yeast gene YCR037C): 1.4
- The level of expressed mRNA in the presence of chemical substance/The level of expressed mRNA in the absence of chemical substance (yeast gene YCR098C): 1.7
- The level of expressed mRNA in the presence of chemical substance/The level of expressed mRNA in the absence of chemical substance (yeast gene YDL128W): 0.9
- The level of expressed mRNA in the presence of chemical substance/The level of expressed mRNA in the absence of chemical substance (yeast gene YDL198C): 1.5
- The level of expressed mRNA in the presence of chemical substance/The level of expressed mRNA in the absence of chemical substance (yeast gene YDL210W): 1.1
- The level of expressed mRNA in the presence of chemical substance/The level of expressed mRNA in the absence of chemical substance (yeast gene YDL245C): 1.0
- The level of expressed mRNA in the presence of chemical substance/The level of expressed mRNA in the absence of chemical substance (yeast gene YDR038C): 1.3
- The level of expressed mRNA in the presence of chemical substance/The level of expressed mRNA in the absence of chemical substance (yeast gene YDR039C): 1.1
- The level of expressed mRNA in the presence of chemical substance/The level of expressed mRNA in the absence of chemical substance (yeast gene YDR086C): 1.4
- The level of expressed mRNA in the presence of chemical substance/The level of expressed mRNA in the absence of chemical substance (yeast gene YDR270W): 0.9
- The level of expressed mRNA in the presence of chemical substance/The level of expressed mRNA in the absence of chemical substance (yeast gene YDR298C): 1.1
- The level of expressed mRNA in the presence of chemical substance/The level of expressed mRNA in the absence of chemical substance (yeast gene YDR342C): 1.0
- The level of expressed mRNA in the presence of chemical substance/The level of expressed mRNA in the absence of chemical substance (yeast gene YDR343C): 1.1
- The level of expressed mRNA in the presence of chemical substance/The level of expressed mRNA in the absence of chemical substance (yeast gene YDR345C): 1.3
- The level of expressed mRNA in the presence of chemical substance/The level of expressed mRNA in the absence of chemical substance (yeast gene YDR387C): 1.2
- The level of expressed mRNA in the presence of chemical substance/The level of expressed mRNA in the absence of chemical substance (yeast gene YDR497C): 1.6
- The level of expressed mRNA in the presence of chemical substance/The level of expressed mRNA in the absence of chemical substance (yeast gene YEL027W): 1.0
- The level of expressed mRNA in the presence of chemical substance/The level of expressed mRNA in the absence of chemical substance (yeast gene YEL063C): 0.7
- The level of expressed mRNA in the presence of chemical substance/The level of expressed mRNA in the absence of chemical substance (yeast gene YEL065W): 0.7
- The level of expressed mRNA in the presence of chemical substance/The level of expressed mRNA in the absence of chemical substance (yeast gene YER053C): 1.2
- The level of expressed mRNA in the presence of chemical substance/The level of expressed mRNA in the absence of chemical substance (yeast gene YFL011W): 0.8
- The level of expressed mRNA in the presence of chemical substance/The level of expressed mRNA in the absence of chemical substance (yeast gene YFL041W): 1.1
- The level of expressed mRNA in the presence of chemical substance/The level of expressed mRNA in the absence of chemical substance (yeast gene YFL050C): 0.8
- The level of expressed mRNA in the presence of chemical substance/The level of expressed mRNA in the absence of chemical substance (yeast gene YFL054C): 1.7
- The level of expressed mRNA in the presence of chemical substance/The level of expressed mRNA in the absence of chemical substance (yeast gene YGL006W): 2.4
- The level of expressed mRNA in the presence of chemical substance/The level of expressed mRNA in the absence of chemical substance (yeast gene YGL008C): 1.1
- The level of expressed mRNA in the presence of chemical substance/The level of expressed mRNA in the absence of chemical substance (yeast gene YGL104C): 1.3
- The level of expressed mRNA in the presence of chemical substance/The level of expressed mRNA in the absence of chemical substance (yeast gene YGL167C): 1.4
- The level of expressed mRNA in the presence of chemical substance/The level of expressed mRNA in the absence of chemical substance (yeast gene YGL255W): 0.6
- The level of expressed mRNA in the presence of chemical substance/The level of expressed mRNA in the absence of chemical substance (yeast gene YGR055W): 0.7
- The level of expressed mRNA in the presence of chemical substance/The level of expressed mRNA in the absence of chemical substance (yeast gene YGR065C): 0.7
- The level of expressed mRNA in the presence of chemical substance/The level of expressed mRNA in the absence of chemical substance (yeast gene YGR082W): 0.9
- The level of expressed mRNA in the presence of chemical substance/The level of expressed mRNA in the absence of chemical substance (yeast gene YGR096W): 0.8
- The level of expressed mRNA in the presence of chemical substance/The level of expressed mRNA in the absence of chemical substance (yeast gene YGR138C): 0.7
- The level of expressed mRNA in the presence of chemical substance/The level of expressed mRNA in the absence of chemical substance (yeast gene YGR191W): 0.8
- The level of expressed mRNA in the presence of chemical substance/The level of expressed mRNA in the absence of chemical substance (yeast gene YGR197C): 1.7
